For assay [1], the system named is sixty human tumor cells derived from nine cancer types. Put plainly: NCI in vitro cytotoxicity screen (SRB assay), mean graph midpoints over all cell lines. Format: cell-based. The note with it: for Log10LC50 mean graph midpoint (MG_MID): 50% cell death (−50% growth); for Log10LC50 mean graph midpoint (MG_MID) / Log10GI50 mean graph midpoint (MG_MID) / Log10TGI mean graph midpoint (MG_MID): 48 h continuous drug exposure, SRB protein assay, human tumor cell lines; for Log10GI50 mean graph midpoint (MG_MID): 50% cell growth inhibition; for Log10TGI mean graph midpoint (MG_MID): total cell growth inhibition (0% growth). The procedure:
(§1) Biological Activity: In vitro biological activity studies were carried out at the National Cancer Institute (USA).
(§2) Cytotoxicity: The compounds 7-methoxy-8-{5-[4-(2-oxo-2H-4-chromenyl)piperazino]pentyl}-oxy-(11aS)-1,2,3,11a-5H-pyrrolo[2,1-c][1,4]benzodiazepin-5-one, 7-methoxy-8-{3-[4-(7-methoxy-8-methyl-2-oxo-2H-4-chromenyl)piperazino]propyl}-oxy-(11aS)-1,2,3,11a-5H-pyrrolo[2,1-c][1,4]benzodiazepin-5-one and 7-methoxy-8-{5-[4-(7-methoxy-8-methyl-2-oxo-2H-4-chromenyl)piperazino]pentyl}-oxy-(11aS)-1,2,3,11a-5H-pyrrolo[2,1-c][1,4]benzodiazepin-5-one were evaluated for in vitro anticancer activity against sixty human tumor cells derived from […] (leukemia, non-small-cell lung, colon, CNS, melanoma, ovarian, prostate, and breast cancer) as shown in (Table 2). For each compound, dose response curves for each cell line were measured at a minimum of five concentrations at 10 fold dilutions. A protocol of 48 h continuous drug exposure was used and a sulforhodamine B (SRB) protein assay was used to estimate cell viability or growth. The concentration causing 50% cell growth inhibition (GI50), total cell growth inhibition (TGI 0% growth) and 50% cell death (LC50, −50% growth) compared with the control was calculated.

The test system of assay [2] is Leukemia cancer cell lines. Briefly: NCI in vitro cytotoxicity screen (SRB assay), leukemia cell lines. Type of assay: cell-based, human. The note with it: average of six to nine different cancer cell lines, 48 h exposure. As to the method:
as §1, §2
(§3) Each cancer type represents the average of six to nine different cancer cell lines.
In general terms: The SRB assay estimates cell density from bound dye.

Assay [3] deals with Non-small-cell-lung cancer cell lines. Put plainly: NCI in vitro cytotoxicity screen (SRB assay), non-small-cell-lung cell lines. Format: cell-based, human. As to conditions: average of six to nine different cancer cell lines, 48 h exposure. The procedure:
as §1, §2, §3

A further assay relates to Colon cancer cell lines. Briefly: NCI in vitro cytotoxicity screen (SRB assay), colon cell lines. Type of assay: cell-based, human. As to conditions: average of six to nine different cancer cell lines, 48 h exposure. As to the method: as §1, §2, §3
The test system of another assay is CNS cancer cell lines. Briefly: NCI in vitro cytotoxicity screen (SRB assay), CNS cell lines. Format: cell-based, human. The note with it: average of six to nine different cancer cell lines, 48 h exposure. As to the method:
as §1, §2, §3

Assay [4] has as its system Melanoma cancer cell lines. Briefly: NCI in vitro cytotoxicity screen (SRB assay), melanoma cell lines. Format: cell-based, human. The note with it: average of six to nine different cancer cell lines, 48 h exposure. As to the method:
as §1, §2, §3

Assay [5] deals with Ovarian cancer cell lines. Briefly: NCI in vitro cytotoxicity screen (SRB assay), ovarian cell lines. Type of assay: cell-based, human. The note with it: average of six to nine different cancer cell lines, 48 h exposure. As to the method:
as §1, §2, §3

Another assay relates to Renal cancer cell lines. Put plainly: NCI in vitro cytotoxicity screen (SRB assay), renal cell lines. Type of assay: cell-based, human. As to conditions: average of six to nine different cancer cell lines, 48 h exposure. As to the method:
as §1, §2, §3

For assay [6], the system named is Prostate cancer cell lines. Briefly: NCI in vitro cytotoxicity screen (SRB assay), prostate cell lines. As to conditions: average of six to nine different cancer cell lines, 48 h exposure. Format: cell-based, human. The procedure: as §1, §2, §3
Another assay relates to Breast cancer cell lines. Put plainly: NCI in vitro cytotoxicity screen (SRB assay), breast cell lines. Format: cell-based, human. As to conditions: average of six to nine different cancer cell lines, 48 h exposure. The procedure:
as §1, §2, §3

With `COc1cc2c(cc1OCCCCCN1CCN(c3cc(=O)oc4c(C)c(OC)ccc34)CC1)N=C[C@@H]1CCCN1C2=O` [Compound 5f, 7-Methoxy-8-{5-[4-(7-methoxy-8-methyl-2-oxo-2H-4-chromenyl)piperazino]pentyl}-oxy-(11aS)-1,2,3,11a-5H-pyrrolo[2,1-c][1,4]benzodiazepin-5-one], the “Log10LC50 mean graph midpoint (MG_MID)” value in assay [1] is recorded as −4.96. In [1], the “Log10GI50 mean graph midpoint (MG_MID)” value is listed as −6.49. Also, the “Log10TGI mean graph midpoint (MG_MID)” value in assay [1] was −5.85. Further, the “Log10LC50 concentration in mol/L causing 50% lethality” value in assay [2] is given as −5.39 mol/L; in [3], −4.87 mol/L; in the assay with Colon cancer cell lines, −5.41 mol/L; in the assay on CNS cancer cell lines, −4.63 mol/L; in assay [4], −5.29 mol/L; in [5] it was −4.28 mol/L. Also, the “Log10LC50 concentration in mol/L causing 50% lethality” value with Renal cancer cell lines was −5.17 mol/L; in assay [6] it was −4.85 mol/L; in the assay with Breast cancer cell lines it was −4.52 mol/L.

Regarding `COc1cc2c(cc1OCCCN1CCN(c3cc(=O)oc4c(C)c(OC)ccc34)CC1)N=C[C@@H]1CCCN1C2=O` [Compound 5d, 7-Methoxy-8-{3-[4-(7-methoxy-8-methyl-2-oxo-2H-4-chromenyl)piperazino]propyl}-oxy-(11aS)-1,2,3,11a-5H-pyrrolo[2,1-c][1,4]benzodiazepin-5-one], the “Log10LC50 mean graph midpoint (MG_MID)” value in [1] was −4.19. In assay [1], the “Log10GI50 mean graph midpoint (MG_MID)” value is on record as −5.68. In addition, in [1], the “Log10TGI mean graph midpoint (MG_MID)” value was −4.86. Besides, the “Log10LC50 concentration in mol/L causing 50% lethality” value was −4.22 mol/L in assay [2]; −4.23 mol/L in assay [3]; −4.87 mol/L in the assay with Colon cancer cell lines; −4.11 mol/L in the assay on CNS cancer cell lines; −4.34 mol/L in assay [4]; −4.00 mol/L in assay [5]. In addition, the figures for the “Log10LC50 concentration in mol/L causing 50% lethality” value (in the assay on Renal cancer cell lines; in assay [6]; in the assay with Breast cancer cell lines) were −5.29 mol/L, −4.00 mol/L and −4.11 mol/L, respectively.

Regarding `COc1cc2c(cc1OCCCCCN1CCN(c3cc(=O)oc4ccccc34)CC1)N=C[C@@H]1CCCN1C2=O` [Compound 5c, 7-Methoxy-8-{5-[4-(2-oxo-2H-4-chromenyl)piperazino]pentyl}-oxy-(11aS)-1,2,3,11a-5H-pyrrolo[2,1-c][1,4]benzodiazepin-5-one], the “Log10LC50 mean graph midpoint (MG_MID)” value in [1] is on record as −4.99. For the same compound, the “Log10GI50 mean graph midpoint (MG_MID)” value in [1] was −7.68. For the same compound, the “Log10TGI mean graph midpoint (MG_MID)” value in assay [1] is listed as −6.66. In assay [1] (various cell lines), the “mean graph pattern: profile of activity and selectivity” value was “interesting profile of activity and selectivity for various cell lines”. The “Log10LC50 concentration in mol/L causing 50% lethality” value is −5.03 mol/L in assay [2]; −4.92 mol/L in assay [3]; −5.24 mol/L in the assay on Colon cancer cell lines; −4.70 mol/L with CNS cancer cell lines; −5.68 mol/L in [4]; −5.44 mol/L in assay [5]. In addition, the “Log10LC50 concentration in mol/L causing 50% lethality” value is listed as −5.26 mol/L in the assay with Renal cancer cell lines, −4.53 mol/L in [6] and −4.71 mol/L in the assay with Breast cancer cell lines.

For the origin of these results see patent US7312210B2, “Pyrrolo[2,1-c][1,4]benzodiazepine compounds and processes for the preparation thereof” (Council of Scientific and Industrial Research, priority 2005, dated 2007).
